Among the test systems are HCT-15 colon; MDA-MB-231 breast; NCI-H460 lung; ACHN renal; UO-31 renal; LOX IMVI melanoma; TK-10 renal; MDA-MB-435; MDA-N; HS 578T breast.
Holding throughout (assay): NCI-60 cell line screen, 48 h

Each structure is given as a SMILES string.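 Exposure lasted 48 hours, with cells grown in 96-well plates and compounds tested at five concentrations. Abbreviation: GI50, concentration required for 50% inhibition of growth. TGI: concentration producing complete growth inhibition.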 Where only a bound is given, the exact number is not on record here.

On to `NC(=O)C[C@H](NC(=O)C1(NC(=O)[C@H](Cc2ccc(CP(=O)(O)O)cc2)NC(=O)C(=O)O)CCCCC1)C(=O)NCCCc1cccc2ccccc12`, for which the TGI with HCT-15 colon, in the test on MDA-MB-231 breast, in the test with NCI-H460 lung, in the test with ACHN renal, with UO-31 renal and in the test on LOX IMVI melanoma was above 10 µM throughout. For the same molecule, the TGI with TK-10 renal, in the test on MDA-MB-435, in the test on MDA-N and with HS 578T breast was above 10 µM each time.

With `COc1cccc2c1-c1c(OC)cccc1SS2`, the TGI in the test on HCT-15 colon is 33.3 µM; in the test on MDA-MB-231 breast, 56.1 µM; in the test with NCI-H460 lung it was 43.8 µM; in the test with ACHN renal it was above 100 µM; in the test with UO-31 renal it was above 100 µM; with LOX IMVI melanoma it was 23.5 µM. The TGI in the test with TK-10 renal was 51.1 µM; with MDA-MB-435, 15.1 µM; in the test on MDA-N, 8.15 µM; with HS 578T breast, above 100 µM.

Consider `CC(C)(C)c1cc(/C=C/C(=O)CC(=O)/C=C/c2cc(C(C)(C)C)c(O)c(C(C)(C)C)c2)cc(C(C)(C)C)c1O`, for which the TGI with HCT-15 colon, with MDA-MB-231 breast, in the test on NCI-H460 lung, with ACHN renal, in the test with UO-31 renal and with LOX IMVI melanoma was above 50 µM each time. Moreover, the TGI with TK-10 renal, with MDA-MB-435, in the test with MDA-N and in the test on HS 578T breast was above 50 µM throughout.

With `COP(=O)(OC)c1ccc(NCc2cc(O)ccc2O)cc1`, the TGI with HCT-15 colon is 50.2 µM; in the test on MDA-MB-231 breast, above 57.8 µM; in the test on NCI-H460 lung it was 45.4 µM; in the test with ACHN renal it was 32.2 µM; in the test on UO-31 renal, 29.3 µM; in the test on LOX IMVI melanoma, above 75.4 µM. Also, the TGI with TK-10 renal was 53.9 µM; with MDA-MB-435, 74.1 µM; in the test on MDA-N it was above 63.2 µM; in the test with HS 578T breast, above 63.8 µM.

Turning to `C[C@]12CC[C@H](O)CC1=CC[C@@H]1[C@@H]2CC[C@]2(C)c3nc(Cl)ccc3C[C@@H]12`, the TGI in the test with HCT-15 colon is above 81.3 µM; in the test on MDA-MB-231 breast, above 100 µM; with NCI-H460 lung, above 100 µM; in the test on ACHN renal, above 100 µM; with LOX IMVI melanoma it was above 100 µM; with TK-10 renal it was above 100 µM. Besides, the TGI with MDA-MB-435, with MDA-N and in the test with HS 578T breast was above 100 µM in each case.

For the molecule `CN(C)CCCNc1cnc2cc3ccccc3cc2n1`, the TGI in the test with HCT-15 colon was 56 µM; with MDA-MB-231 breast, 41.4 µM; with NCI-H460 lung it was above 100 µM; in the test on ACHN renal it was above 100 µM; in the test on LOX IMVI melanoma, 35.7 µM; in the test on TK-10 renal, 78.2 µM. The TGI was 79.2 µM in the test on MDA-MB-435, above 100 µM with MDA-N and above 100 µM in the test on HS 578T breast.

As for `CCNc1cc2c3c(c1)CCCN3CCC2`, the TGI in the test on HCT-15 colon is 40.5 µM; with MDA-MB-231 breast, 22.4 µM; with NCI-H460 lung, 29.8 µM; in the test on ACHN renal, 63.1 µM; in the test on UO-31 renal, above 100 µM; in the test on LOX IMVI melanoma, 13.5 µM. The TGI in the test on TK-10 renal is above 100 µM; with MDA-MB-435, 11.2 µM; in the test on MDA-N, 10.9 µM; in the test on HS 578T breast it was 78.5 µM.

Consider `O=[N+]([O-])c1ccc2nc(/C=C(\O)c3ccccc3)c(/C=C(\O)c3ccccc3)nc2c1`, for which the TGI with HCT-15 colon was above 100 µM; in the test on MDA-MB-231 breast, 39.4 µM; with NCI-H460 lung, above 81 µM; in the test with ACHN renal it was above 100 µM; in the test on UO-31 renal it was 31.6 µM; in the test with LOX IMVI melanoma it was 21.3 µM. Also, the TGI in the test on TK-10 renal was 63 µM; with MDA-MB-435 it was above 56.2 µM; in the test on MDA-N, above 100 µM; in the test with HS 578T breast it was 48.6 µM. Further, the GI50 in the test on LOX IMVI melanoma is 7.18 µM; with HS 578T breast it was 6.83 µM.

For `CSC1(SC)N2Cc3ccccc3N=C2C1(c1ccccc1)c1ccccc1`, the TGI was above 100 µM in the test with HCT-15 colon; above 100 µM in the test on MDA-MB-231 breast; 64.3 µM in the test with NCI-H460 lung; above 100 µM in the test with ACHN renal; above 100 µM in the test with UO-31 renal; 44.4 µM in the test with LOX IMVI melanoma. Besides, the TGI was above 100 µM in the test with TK-10 renal, 16 µM in the test on MDA-MB-435, above 96.7 µM in the test on MDA-N and above 82.5 µM in the test with HS 578T breast.

Take `CC(C)(C)OC(=O)N1Cc2cc(O)ccc2C[C@H]1C(=O)O`: the TGI in the test on HCT-15 colon, in the test on MDA-MB-231 breast, with NCI-H460 lung, with ACHN renal, with LOX IMVI melanoma and with TK-10 renal was above 100 µM throughout. The TGI with MDA-MB-435, in the test with MDA-N and in the test on HS 578T breast was above 100 µM throughout.

As for `CCCCC1(N=[N+]=[N-])C(=O)C2C=CC=C3c4ccccc4N(C1=O)C32` (stereo not given), the TGI in the test with HCT-15 colon, in the test with MDA-MB-231 breast, in the test with NCI-H460 lung, with ACHN renal, in the test on UO-31 renal and with LOX IMVI melanoma was above 31.6 µM each time. The TGI is above 31.6 µM in the test on TK-10 renal, above 31.6 µM in the test on MDA-MB-435, above 31.6 µM in the test with MDA-N and 26 µM in the test on HS 578T breast.

Take `CO[C@H]1C[C@H](n2cc(C)c(=O)[nH]c2=O)O[C@@H]1CO`: the TGI in the test on HCT-15 colon, in the test on MDA-MB-231 breast, in the test on NCI-H460 lung, with ACHN renal, in the test on UO-31 renal and in the test with LOX IMVI melanoma was above 100 µM each time. Further, the TGI in the test on TK-10 renal, in the test with MDA-MB-435, in the test with MDA-N and in the test on HS 578T breast was above 100 µM each time.

Turning to `NC(=O)c1ncn2c(=O)n(CCl)nnc12`, the TGI with HCT-15 colon, with MDA-MB-231 breast, with NCI-H460 lung, in the test on ACHN renal, with UO-31 renal and with LOX IMVI melanoma was above 100 µM throughout. Besides, the TGI in the test with TK-10 renal, in the test with MDA-MB-435, in the test with MDA-N and in the test on HS 578T breast was above 100 µM each time.

Turning to `COc1cc(/C=C2\N=C(C)N(n3c(-c4ccccc4)nc4ccccc4c3=O)C2=O)cc(OC)c1OC`, the TGI in the test on HCT-15 colon, with MDA-MB-231 breast, in the test with NCI-H460 lung, in the test on ACHN renal, with UO-31 renal and in the test on LOX IMVI melanoma was above 100 µM in each case. For the same molecule, the TGI in the test with TK-10 renal, in the test with MDA-MB-435, in the test with MDA-N and in the test on HS 578T breast was above 100 µM throughout.

For the molecule `CC1(C)O[C@H]2OC(CO)C(OS(C)(=O)=O)[C@H]2O1` (stereo not given in full), the TGI in the test on HCT-15 colon, in the test with MDA-MB-231 breast, in the test with NCI-H460 lung, in the test on ACHN renal, in the test on UO-31 renal and in the test with LOX IMVI melanoma was above 100 µM throughout. In addition, the TGI in the test on TK-10 renal, in the test on MDA-MB-435, with MDA-N and in the test with HS 578T breast was above 100 µM in each case.

`Cc1c(O)c(=O)ccn1CCc1c[nH]c2ccccc12`: the TGI with HCT-15 colon is above 100 µM; in the test with MDA-MB-231 breast, 6.47 µM; with NCI-H460 lung, 19.4 µM; in the test on ACHN renal, 23.5 µM; with LOX IMVI melanoma, 17 µM; in the test on TK-10 renal it was above 100 µM. Further, the values for the TGI in the test with MDA-MB-435, in the test on MDA-N and in the test on HS 578T breast were above 100 µM, above 100 µM and 54 µM, respectively.

For `COc1cc([C@@H]2c3cc4c(cc3[C@@H](N=Cc3ccc(C(=O)O[C@@H](C(=O)O[C@H]5C[C@@]6(O)[C@@H](OC(=O)c7ccccc7)[C@@H]7[C@]8(OC(C)=O)CO[C@@H]8C[C@H](O)[C@@]7(C)C(=O)[C@H](OC(C)=O)C(=C5C)C6(C)C)[C@@H](NC(=O)c5ccccc5)c5ccccc5)cc3)[C@H]3COC(=O)[C@H]23)OCO4)cc(OC)c1O`, the TGI in the test with HCT-15 colon is above 50 µM; in the test with MDA-MB-231 breast, above 13.9 µM; with NCI-H460 lung it was above 50 µM; with ACHN renal it was above 50 µM; with LOX IMVI melanoma, above 50 µM; in the test on TK-10 renal, above 50 µM. For the same molecule, the values for the TGI in the test with MDA-MB-435, in the test with MDA-N and in the test on HS 578T breast were 0.00867 µM, 0.0663 µM and above 50 µM, respectively.

Regarding `NC(=O)CCC(NC(=O)c1cccc2c(=O)c3ccccc3[nH]c12)C(=O)O` (stereo not given), the TGI in the test on HCT-15 colon, with MDA-MB-231 breast, in the test with ACHN renal, with UO-31 renal, in the test with LOX IMVI melanoma and in the test on TK-10 renal was above 100 µM in each case. The TGI in the test with MDA-MB-435, in the test on MDA-N and with HS 578T breast was above 100 µM throughout.

`COc1nc2ccc(CNc3ccc(C(=O)O)cc3)cc2nc1OC`: the TGI with HCT-15 colon, in the test with MDA-MB-231 breast, in the test with NCI-H460 lung, in the test on ACHN renal, in the test on LOX IMVI melanoma and in the test with TK-10 renal was above 10 µM in each case. In addition, the TGI in the test on MDA-MB-435, in the test with MDA-N and in the test with HS 578T breast was above 10 µM in each case.

For the origin of these results see PubChem BioAssay (NCI).
